From article PMC12187842, “A novel molecule targeting neutrophil-mediated B-1a cell trogocytosis attenuates sepsis-induced acute lung injury” (Frontiers in Immunology, 2025)

What was measured:
Assay type in all cases: in vivo, mouse
[1] = tested on: B-1a cells; assay: B-1a cell numbers in pleural and peritoneal cavities of CLP mice by flow cytometry
Source text: (§1) Mice were anesthetized with 2% isoflurane in oxygen, and sepsis was induced via cecal ligation and puncture (CLP) ([26]). A 1-cm midline abdominal incision was made to expose the cecum, which was ligated 1-cm proximal to its end using a 4-0 silk suture. The cecum then was perforated with a single through-and-through puncture using a 22-gauge needle, positioned midway between the ligation and the tip of the cecum. A small amount of fecal material was gently extruded from the perforation sites to confirm the patency of the punctures, and the cecum was subsequently returned to the peritoneal cavity. Following abdominal closure, resuscitation was provided via subcutaneous (s.c.) injection of 500 µL normal saline. Postoperative analgesia was administered with a single dose of 0.1 mg/kg buprenorphine. […]
B-1a cell and neutrophil populations were analyzed by flow cytometry ([9], [11], [28]). […] After that, B-1a cells (CD45^+CD19^+B220^lo/-CD5^+CD23^-) ([6], [28]), and neutrophils (CD45^+Ly6G^+) were detected by flow cytometry. Fc block (Cat. No. 156604, BioLegend) was used to prevent nonspecific antibody binding and the cell viability was determined using a Zombie Aqua Fixable Viability Kit (BioLegend). […]

[2] = tested on: CLP-induced sepsis in C57BL/6 mice; assay: Lung tissue mRNA expression in CLP mice by real-time qPCR; conditions: C11 10 mg/kg i.p. once after CLP (Figure 5 legend: 10 μg/kg); 20 h; normalized to β-actin; n = 5-7/group; vs. CLP vehicle
Source text: Mice were anesthetized with 2% isoflurane in oxygen, and sepsis was induced via cecal ligation and puncture (CLP) ([26]). A 1-cm midline abdominal incision was made to expose the cecum, which was ligated 1-cm proximal to its end using a 4-0 silk suture. The cecum then was perforated with a single through-and-through puncture using a 22-gauge needle, positioned midway between the ligation and the tip of the cecum. A small amount of fecal material was gently extruded from the perforation sites to confirm the patency of the punctures, and the cecum was subsequently returned to the peritoneal cavity. Following abdominal closure, resuscitation was provided via subcutaneous (s.c.) injection of 500 µL normal saline. Postoperative analgesia was administered with a single dose of 0.1 mg/kg buprenorphine. To evaluate the effects of the therapeutic peptide (named Compound 11 or C11) (synthesized by GenScript USA Inc., Piscataway, NJ) on sepsis, C57BL/6 mice were assigned to three experimental groups: the Sham group, the CLP group treated with vehicle, and the CLP group treated with C11 (10 mg/kg). C11 was dissolved in DMSO (10 mg/mL) and diluted with saline to a total volume of 500 µL. The peptide was administered once, immediately after surgery, via intraperitoneal (i.p.) injection. Mice in the vehicle group received an equivalent volume of DMSO and normal saline via i.p. injection. After 20 h, lungs were harvested, and blood was collected via cardiac puncture. For the survival study, animals received a single subcutaneous (s.c.) injection of 0.5 mg/kg imipenem at the end of the CLP.
Total RNA was extracted from lungs using a TRIzol reagent (Thermo Fisher Scientific) according to the manufacturer’s instructions. cDNA was synthesized using M-MLV reverse transcriptase (Thermo Fisher Scientific). Quantitative real-time PCR (qPCR) was performed using SYBR Green PCR Master Mix (Thermo Fisher Scientific) with a StepOnePlus Real-Time PCR thermocycler (Thermo Fisher Scientific). Mouse β-actin served as an endogenous control to normalize mRNA levels using the comparative Ct method. […]

[3] = tested on: CLP-induced sepsis in C57BL/6 mice; assay: TUNEL assay of lung tissue in CLP mice; conditions: C11 10 mg/kg i.p. once after CLP (Figure 5 legend: 10 μg/kg); 20 h; n = 5-7/group; vs. CLP vehicle
Source text: as §1
To determine cellular apoptosis we used a TUNEL assay kit (Roche Diagnostics, Indianapolis, IN) using 5-μm lung sections by following the manufacturer’s instructions. […] The TUNEL-positive cells were assessed by LSM900 confocal microscope (Zeiss) microscopes. The number of apoptotic cells/fields was quantified using ImageJ, Fiji software (version 1.53k).

[4] = tested on: CLP-induced sepsis in C57BL/6 mice; assay: Survival study in CLP mice; conditions: C11 10 mg/kg i.p. once after CLP (Figure 5 legend: 10 μg/kg), single s.c. imipenem 0.5 mg/kg; n = 21/group; CLP vehicle 28.6%; p < 0.05 vs. CLP vehicle, log-rank
Source text: as §1
All statistical analyses were performed using Prism 10 (GraphPad Software, San Diego, CA). Data are expressed as the mean ± standard error of the mean (SEM), and p-values < 0.05 were considered statistically significant. […] For survival analysis, data were assessed using the Kaplan-Meier estimator and compared using the log-rank test.

126-ELKNRTVSWFS-136 [Compound C11]
B-1a cell numbers in the pleural and peritoneal cavities ([1]; C11 10 mg/kg i.p. once immediately after CLP, 20 h after surgery, flow cytometry, n = 5-6/group, p < 0.05 vs. C11 (-)): effectively preserved
restoration of B-1a cell numbers in sepsis ([1]; discussion, blocking of Siglec-G/CD47 interaction by C11 in CLP mice): did not fully restore B-1a cell numbers
lung tissue CXCL1 (KC) mRNA [2]: significantly reduced
lung tissue CXCL2 (MIP-2) mRNA [2]: significantly reduced
lung tissue IL-6 mRNA [2]: significantly reduced
lung apoptosis (TUNEL+ cells) [3]: reduced tissue damage and apoptosis
survival [4]: 57.1%
